In the supplement of paper PMC10627819:

Tests used:
Conditions in all cases: main component drawn
B. subtilis 168 [1] = test: fitness (endpoint OD595 vs no drug) (fraction); higher = more growth
In short: (§1)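 Volumes were 30 µl per well, or 55 µl for S. pneumoniae, in 384-well plates inoculated at OD595 0.01. Media were TSB, LB Lennox or CY at 37 °C, and OD595 was read every 30 min for 14 h with first-reading background subtraction. Fitness is the ratio of optical density at stationary-phase entry to the robust mean of no-drug controls. That ratio is capped at 1.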

S. aureus Newman [2] = test: as above
In short: as §1

B. subtilis 168 [3] = test: Bliss interaction score (quartile over a dose matrix) (fitness difference); higher = more antagonism (negative = synergy)
In short: (§2)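 Fitness was defined as normalised growth: OD595 at the start of stationary phase divided by the plate's robust no-drug mean and capped at 1. Single-drug fitness was inferred from combination measurements. The Bliss score is observed fitness minus the product of the single-drug values, summarised by quartiles across technical, biological and donor/recipient replicates.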

S. aureus DSM 20231 = test: as above
In short: as §2

S. aureus Newman [4] = test: as above
In short: as §2

S. pneumoniae D39V = test: as above
In short: as §2
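Wherever Bliss interaction score (quartile over a dose matrix) is given: first quartile when negative (synergy) and third quartile when positive (antagonism).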

CC[C@H](C)[C@H](N)C1=N[C@H](C(=O)N[C@@H](CC(C)C)C(=O)N[C@H](CCC(=O)O)C(=O)N[C@H](C(=O)N[C@H]2CCCCNC(=O)[C@H](CC(N)=O)NC(=O)[C@@H](CC(=O)O)NC(=O)[C@H](Cc3cnc[nH]3)NC(=O)[C@@H](Cc3ccccc3)NC(=O)[C@H]([C@@H](C)CC)NC(=O)[C@@H](CCCN)NC2=O)[C@@H](C)CC)CS1 [Bacitracin] + CN(N=O)C(=O)N[C@@H](C=O)[C@@H](O)[C@H](O)[C@H](O)CO [Streptozotocin]
fitness
Conditions | partner 0.15 µg/mL | partner 0.3 µg/mL | partner 0.6 µg/mL
B. subtilis 168 [1], first compound 37.5 µg/mL | 0.913 | 0.856 | 0.906
B. subtilis 168 [1], first compound 75 µg/mL | 0.806 | 0.857 | 0.876
S. aureus Newman [2], first compound 18.75 µg/mL | 0.59 | 0.526 | 0.245
S. aureus Newman [2], first compound 37.5 µg/mL | 0.124 | 0.0706 | 0.0163
S. aureus Newman [2], first compound 75 µg/mL | 0.0279 | 0.0183 | 0.0064

Conditions | Bliss interaction score
B. subtilis 168 [3] | 0.0453
S. aureus DSM 20231 | -0.0576
S. aureus Newman [4] | -0.104
S. pneumoniae D39V | -0.0625

CC[C@H](C)[C@H](N)C1=N[C@H](C(=O)N[C@@H](CC(C)C)C(=O)N[C@H](CCC(=O)O)C(=O)N[C@H](C(=O)N[C@H]2CCCCNC(=O)[C@H](CC(N)=O)NC(=O)[C@@H](CC(=O)O)NC(=O)[C@H](Cc3cnc[nH]3)NC(=O)[C@@H](Cc3ccccc3)NC(=O)[C@H]([C@@H](C)CC)NC(=O)[C@@H](CCCN)NC2=O)[C@@H](C)CC)CS1 [Bacitracin] + CC(C1CCC(C(O1)OC2C(CC(C(C2O)OC3C(C(C(CO3)(C)O)NC)O)N)N)N)NC [Gentamicin]
fitness
Conditions | first compound 18.75 µg/mL | first compound 37.5 µg/mL | first compound 75 µg/mL | first compound 150 µg/mL
B. subtilis 168 [1], partner 0.125 µg/mL | – | – | – | 0.0432
B. subtilis 168 [1], partner 0.25 µg/mL | – | 0.0865 | 0.0452 | 0.0472
S. aureus Newman [2], partner 0.375 µg/mL | 0.591 | 0.122 | 0.0738 | –
S. aureus Newman [2], partner 0.5 µg/mL | 0.759 | 0.625 | 0.0785 | –
S. aureus Newman [2], partner 0.75 µg/mL | 0.461 | 0.137 | 0.0623 | –
S. aureus Newman [2], partner 1 µg/mL | 0.803 | – | 0.0125 | –
S. aureus Newman [2], partner 1.5 µg/mL | – | 0.163 | 0.0666 | –
S. aureus Newman [2], partner 2 µg/mL | 0.842 | – | 0.0163 | –

Conditions | Bliss interaction score
B. subtilis 168 [3] | -0.298
S. aureus DSM 20231 | -0.0565
S. aureus Newman [4] | 0.102
S. pneumoniae D39V | -0.149

CC[C@H](C)[C@H](N)C1=N[C@H](C(=O)N[C@@H](CC(C)C)C(=O)N[C@H](CCC(=O)O)C(=O)N[C@H](C(=O)N[C@H]2CCCCNC(=O)[C@H](CC(N)=O)NC(=O)[C@@H](CC(=O)O)NC(=O)[C@H](Cc3cnc[nH]3)NC(=O)[C@@H](Cc3ccccc3)NC(=O)[C@H]([C@@H](C)CC)NC(=O)[C@@H](CCCN)NC2=O)[C@@H](C)CC)CS1 [Bacitracin] + CN1C2=CC=CC=C2N=C3C1=CC=CC3=O [Pyocyanin]
fitness
Conditions | first compound 18.75 µg/mL | first compound 37.5 µg/mL | first compound 75 µg/mL | first compound 150 µg/mL
B. subtilis 168 [1], partner 1.25 µg/mL | – | 0.9 | 0.931 | 0.8
B. subtilis 168 [1], partner 2.5 µg/mL | – | 0.839 | 0.853 | 0.682
B. subtilis 168 [1], partner 5 µg/mL | – | 0.614 | 0.594 | 0.419
S. aureus Newman [2], partner 1.25 µg/mL | 0.574 | 0.208 | 0.04 | –
S. aureus Newman [2], partner 2.5 µg/mL | 0.496 | 0.18 | 0.0276 | –
S. aureus Newman [2], partner 5 µg/mL | 0.281 | 0.148 | 0.0716 | –

Conditions | Bliss interaction score
B. subtilis 168 [3] | 0.0566
S. aureus DSM 20231 | 0.0748
S. aureus Newman [4] | -0.0473
S. pneumoniae D39V | 0.0487

CC[C@H](C)[C@H](N)C1=N[C@H](C(=O)N[C@@H](CC(C)C)C(=O)N[C@H](CCC(=O)O)C(=O)N[C@H](C(=O)N[C@H]2CCCCNC(=O)[C@H](CC(N)=O)NC(=O)[C@@H](CC(=O)O)NC(=O)[C@H](Cc3cnc[nH]3)NC(=O)[C@@H](Cc3ccccc3)NC(=O)[C@H]([C@@H](C)CC)NC(=O)[C@@H](CCCN)NC2=O)[C@@H](C)CC)CS1 [Bacitracin] + Cc1onc(-c2ccccc2)c1C(=O)N[C@@H]1C(=O)N2[C@@H]1SC(C)(C)[C@@H]2C(=O)O [Oxacillin]
fitness
Conditions | first compound 18.75 µg/mL | first compound 37.5 µg/mL | first compound 75 µg/mL
B. subtilis 168 [1], partner 0.002 µg/mL | – | 0.958 | 0.959
B. subtilis 168 [1], partner 0.004 µg/mL | – | 0.955 | 0.913
B. subtilis 168 [1], partner 0.008 µg/mL | – | 0.924 | 0.835
S. aureus Newman [2], partner 0.0156 µg/mL | 0.534 | 0.0937 | 0.0408
S. aureus Newman [2], partner 0.0312 µg/mL | – | 0.0243 | 0.0443
S. aureus Newman [2], partner 0.0625 µg/mL | 0.0815 | 0.0177 | 0.0488

fitness, B. subtilis 168 [1], one replicate
Conditions | partner 0.0078 µg/mL | partner 0.0155 µg/mL | partner 0.031 µg/mL | partner 0.075 µg/mL | partner 0.15 µg/mL | partner 0.3 µg/mL
first compound 37.5 µg/mL | 0.79 | 0.782 | 0.742 | 0.58 | 0.0238 | 0.0295
first compound 75 µg/mL | 0.778 | 0.76 | 0.701 | 0.496 | 0.0193 | 0.0177
first compound 150 µg/mL | 0.447 | 0.36 | 0.316 | 0.242 | 0.0097 | 0.0106

Conditions | Bliss interaction score
B. subtilis 168 [3] | -0.0456
S. aureus DSM 20231 | 0.0803
S. aureus Newman [4] | -0.118
S. pneumoniae D39V | -0.107

CC[C@H](C)[C@H](N)C1=N[C@H](C(=O)N[C@@H](CC(C)C)C(=O)N[C@H](CCC(=O)O)C(=O)N[C@H](C(=O)N[C@H]2CCCCNC(=O)[C@H](CC(N)=O)NC(=O)[C@@H](CC(=O)O)NC(=O)[C@H](Cc3cnc[nH]3)NC(=O)[C@@H](Cc3ccccc3)NC(=O)[C@H]([C@@H](C)CC)NC(=O)[C@@H](CCCN)NC2=O)[C@@H](C)CC)CS1 [Bacitracin] + C[C@@H]1O[C@@H]1P(=O)(O)O [Fosfomycin]
fitness
Conditions | first compound 18.75 µg/mL | first compound 37.5 µg/mL | first compound 75 µg/mL | first compound 150 µg/mL
B. subtilis 168 [1], partner 1.562 µg/mL | – | 0.697 | 0.662 | 0.607
B. subtilis 168 [1], partner 3.124 µg/mL | – | 0.61 | 0.594 | 0.488
B. subtilis 168 [1], partner 6.248 µg/mL | – | 0.501 | 0.51 | 0.427
S. aureus Newman [2], partner 0.781 µg/mL | 0.507 | 0.0984 | 0.0911 | –
S. aureus Newman [2], partner 1.562 µg/mL | 0.471 | – | 0.0362 | –
S. aureus Newman [2], partner 3.124 µg/mL | 0.174 | 0.0141 | 0.0222 | –

Conditions | Bliss interaction score
B. subtilis 168 [3] | 0.0941
S. aureus DSM 20231 | 0.109
S. aureus Newman [4] | 0.102
S. pneumoniae D39V | -0.0469
